# Assay results published in US12109221B2, “Combination therapy for treating cancer” (LEUKOS BIOTECH, S.L., priority 2017, dated 2024).
# Key:
# [1] = tested on: MonoMac-1 AML cells; assay: In vivo xenotransplantation assay, human AML cells in bones by flow cytometry; design: species or system NSG mice; conditions: 5 mg/kg apomorphine and 30 mg/kg cytarabine, intraperitoneally, 5 days
# Procedure: FIG. 4. […] Bulsulfan-conditioned NSG adult mice were intravenously injected with 1×10^6 MonoMac-1 AML cells. One week after transplantation, mice were treated with 5 mg/kg apomorphine (APO) and/or 30 mg/kg cytarabine (CYT) daily for 5 days. Mice were culled and bones were harvested. Human leukemia cells were detected based on the expression of hCD45 on the surface membrane by flow cytometry. Normalized number of human AML cells against control-treated mice is represented. Bars correspond to mean values and error bars to SEM. ** p<0.01; **** p<0.0001. hAML: #human AML cells (referred to 15 control). CTR: Control.
# In order to verify that the synergic cytotoxic effect was also detectable in vivo, pharmacological-conditioned NSG mice were transplanted intravenously with 1×10^6 MonoMac-1 AML cells. One week after transplantation, mice were treated for 5 days with 5 mg/kg apomorphine and/or 30 mg/kg cytarabine, both of them intraperitoneally. Mice were culled and bones were harvested and analyzed for human leukemia by flow cytometry.
# [2] = tested on: HL-60 and Ara-C-resistant HL-60; assay: Sensitivity to HTR1 antagonists, parental versus Ara-C-resistant cells, cell viability by flow cytometry; assay type: cell-based, human; conditions: HL-60 parental vs Ara-C-resistant HL-60; 72 h
# [3] = tested on: AML cell line (MonoMac-1); assay: Cell viability by flow cytometry 72 h after treatment, HTR1 antagonist plus cladribine, fludarabine or methotrexate, combination index; assay type: cell-based, human
# Procedure: FIGS. 8A and 8B. […] MonoMac-1 cells were cultured for 72 h in a complete RPMI medium in the presence of 5, 10 μM apomorphine (APO) or methiothepin (MET), and 10, 27, 55 nM cladribine (CLD). FIG. 8A. Combination index (CI) value of CLD and APO combination. FIG. 8B. CI value of CLD and MET combination.
# FIGS. 9A and 9B. […] MonoMac-1 cells were cultured for 72 h in a complete RPMI medium in the presence of 5, 10 μM apomorphine (APO) or methiothepin (MET), and 200, 500, 1000 nM fludarabine (FLD). FIG. 9A. CI value of FLD and APO combination. FIG. 9B. CI value of FLD and MET combination.
# FIG. 10. […] MonoMac-1 cells were cultured for 72 h in a complete RPMI medium in the presence of 5, 10 μM apomorphine (APO), and 2.5, 6.25, 12.5 nM methotrexate (MTX). CI value of MTX and APO combination.
# (§1) Synergy is determined herein by means of the Combination Index Model, described previously (Chou T C, Pharmacological Reviews 58: 621-681, 2006). The CI was measured using Compusyn open software. CI values below 1 indicate synergism. CI values about 1 indicate additivism and CI values above 1 indicate antagonisms.
# Cladribine is a cytostatic drug indicated for myeloid neoplasias. […] 72 h after treatment, cell viability was measured by flow cytometry (live cells according to the correct FSC-SSC profile, 7-AAD negativity and Hoechst 33342 positivity, and volumetrically counted).
# The potential cytotoxic interaction of fludarabine with HTR1 antagonists was also examined on the same experimental conditions of the example 8. […] 72 h after treatment, cell viability was measured by flow cytometry (live cells according to the correct FSC-SSC profile, 7-AAD negativity and Hoechst 33342 positivity, and volumetrically counted).
# Finally, the interaction of the antineoplastic drug methotrexate with HTR1 antagonist was studied. […] 72 h after treatment, cell viability was measured by flow cytometry (live cells according to the correct FSC-SSC profile, 7-AAD negativity and Hoechst 33342 positivity, and volumetrically counted).
# [4] = tested on: Sp1 gene expression in HL-60 AML cells; assay: Sp1 mRNA expression by semi-quantitative PCR; assay type: cell-based, human; conditions: HL-60 cells, 72 h; 10 µM apomorphine, 10 µM methiothepin, 5 µM SB224289
# Procedure: FIG. 7. Treatment with HTR1 antagonists decreased Sp1 gene expression. HL-60 AML cells were treated with 10 μM apomorphine (APO), 10 μM methiothepin (MET) or 5 μM SB224289 (SB9) for 72 h. Total RNA was isolated and cDNA was obtained afterwards. Semi-quantitative PCR was performed to detect gene expression. Sp1 gene expression is represented as 2^(−ΔΔCt) using GAPDH as the endogenous control. Bars represent the mean value of triplicates. Error bars correspond to SEM. * p<0.05; **** p<0.0001. ddCt: 2^(−ΔΔCt).
# At a gene expression level, the expression of Sp1 mRNA was studied. Sp1 has been implicated with chemotherapeutic resistance (Zhang et al. Mol Cancer 2015; 14:56). HL-60 AML cells were treated for 72 h with 10 µM apomorphine, 10 µM methiothepin and 5 µM SB224289. Total RNA as isolated and mRNA was retrotranscribed to cDNA. Semi-quantitative PCR was performed with specific TaqMan oligo pairs.
# [5] = tested on: AML cell lines (HL-60 and MonoMac-1); assay: Cell viability by flow cytometry 72 h after treatment, HTR1 antagonist plus azacitidine or decitabine, combination index; assay type: cell-based, human
# Procedure: FIGS. 2A and 2B. […] MonoMac-1 cells were cultured for 72 h in a complete RPMI medium in the presence of 2, 5, 10 μM apomorphine (APO) or methiothepin (MET), and 100, 200, 1000 nM azacitidine (AZA). FIG. 2A. Cell viability was measured by flow cytometry (correct FSC-SSC profile, 7-AAD-, Hoechst33342^low). Normalized number of live cells is graphed. Bars represent the mean value and error bars represent SEM. *** p<0.001; **** p<0.0001. NLC: Number of live cells (referred to control). FIG. 2B. Combination index (CI) value of each combination.
# FIGS. 3A and 3B. […] Cell viability was measured by flow cytometry (correct FSC-SSC profile, 7-AAD-, Hoechst33342^low). […]
# Synergy is determined herein by means of the Combination Index Model, described previously (Chou T C, Pharmacological Reviews 58: 621-681, 2006). The CI was measured using Compusyn open software. […]
# Next, the inventors examined the interaction between HTR1 antagonists and azacitidine. […] Cell viability was measured by flow cytometry (live cells according to the correct FSC-SSC profile, 7-AAD negativity and Hoechst 33342 positivity) 72 h after treatment.
# Similarly, decitabine was also interrogated for its potential cytotoxic interaction with HTR1 antagonists. […] 72 h after treatment, cell viability was measured by flow cytometry (live cells according to the correct FSC-SSC profile, 7-AAD negativity and Hoechst 33342 positivity).
# [6] = tested on: KG-1 and Ara-C-resistant KG-1; assay: Sensitivity to HTR1 antagonists, parental versus Ara-C-resistant cells, cell viability by flow cytometry; assay type: cell-based, human; conditions: KG-1 parental vs Ara-C-resistant KG-1; 72 h
# [7] = tested on: AML cell lines (TPH-1 and MonoMac1); assay: Cell viability by flow cytometry 72 h after treatment, HTR1 antagonist plus cytarabine, combination index; assay type: cell-based, human; conditions: in combination with cytarabine, CI below 1 = synergism
# Procedure: FIGS. 1A and 1B. […] FIG. 1A. Cell viability was measured by flow cytometry (correct FSC-SSC profile, 7-AAD-, Hoechst33342^low). Normalized number of live cells is graphed. Bars represent the mean value and error bars represent SEM. *** p<0.001; **** p<0.0001. NLC: Number of live cells (referred to control). FIG. 1B. Combination index (CI) value of each combination.
# as §1
Compound,effect of the combination in in vivo treatment of AML-bearing mice [1],"EC50, parental compared to Ara-C-resistant cells [2]",interaction with cladribine (combination index) ([3]; in combination with cladribine),interaction with fludarabine (combination index) ([3]; in combination with fludarabine),"interaction with methotrexate (combination index) ([3]; in combination with methotrexate, low and high concentrations)",Sp1 gene expression [4],interaction with azacitidine (combination index) ([5]; in combination with azacitidine),interaction with decitabine (combination index) ([5]; in combination with decitabine),"EC50, parental compared to Ara-C-resistant cells [6]",interaction with cytarabine according to the combination index model [7]
"Nc1ccn([C@@H]2O[C@H](CO)[C@H](O)[C@@H]2O)c(=O)n1 [Ara-C, 4-amino-1-[(2R,3S,4R,5R)-3,4-dihydroxy-5 (hydroxymethyl)oxolan-2-yl]pyrimidin-2-one]",synergistic effect,–,–,–,–,–,–,–,–,–
"CN1CCc2cccc3c2[C@H]1Cc1ccc(O)c(O)c1-3 [apomorphine, (6aR)-6-methyl-5,6,6a, 7-tetrahydro-4H-dibenzo[de, g]quinoline-10,11-diol]",synergistic effect,equivalent EC50 values,synergically anti-leukemic effect,synergically antileukemic effect,synergically anti-leukemic effect,downregulation of Sp1 gene expression,synergically anti-leukemic effect,synergically anti-leukemic effect,equivalent EC50 values,act synergically
Cc1nc(-c2ccc(-c3ccc(C(=O)N4CCc5cc6c(cc54)C4(CCN(C)CC4)CO6)cc3)c(C)c2)no1 [SB224289],–,–,–,–,–,downregulation of Sp1 gene expression,–,–,–,–
